In brackets after ≈: the same amount, converted by molar mass. Read-outs that look alike come from different tables or passages of the source.
Assays:
[1] = DPPH radical scavenging assay (Experiment 2); assay type: biochemical
Protocol: Gallic acid (reference inhibitor) preparation. For gallic acid, a stock of 200 μg/ml was prepared by dissolving 2 mg of gallic acid in 10 ml of methanol. Further dilutions were made as required with methanol. […] In brief, the total reaction mixture contained methanol/vehicle buffer/positive control/various concentrations of test solution and DPPH to a final concentration of 0.132 mM. The reaction mixture was incubated at 25° C. for 20 minutes. Following incubation the absorbance was read at 510 nm using a micro-well plate reader (Molecular devices Versamax microplate reader). A control reaction was carried out without test samples. The % inhibition values were calculated as follows: [formula] Where, Absorbance=Final Absorbance−Initial absorbance. IC50 was calculated using log-probit analysis.

[2] = Super oxide radical scavenging assay (NADH/NBT/PMS); assay type: biochemical
Protocol: (§1) Gallic acid (reference inhibitor) preparation, For gallic acid, a stock of 500 μg/ml was prepared by dissolving 5 mg of gallic acid in 10 ml of 0.1M phosphate buffer pH 7.4. […] The assay was carried out as per the method of Yen et al. with modifications. In brief, the reaction mixture contained 0.1M phosphate buffer pH 7.4/vehicle buffer/positive control/test sample of various concentrations, 292.5 μM NADH, 37.5 μM NBT and 15 μM PMS. The plate was mixed and incubated at 25° C. for 5 minutes. The absorbance was measured at 560 nm in a micro-plate reader (Versamax, Molecular devices). A control reaction was carried out without test samples. The % inhibition values were calculated as follows: [formula] IC50 was calculated using log-probit analysis.

[3] = Solubility of sample preparation upon visual inspection; assay type: physicochemical
Protocol: Briefly, 12.5 mg of the herbal composition 2 contents was weighed, dissolved in 312.5 μl of DMSO and the volume was made up to 10 ml with 100% methanol. Further dilutions were done in 100% methanol containing 3.125% of DMSO. […] For calculation purposes the sample was considered to be 100% soluble.
Gallic acid (reference inhibitor) preparation. For gallic acid, a stock of 200 μg/ml was prepared by dissolving 2 mg of gallic acid in 10 ml of methanol. Further dilutions were made as required with methanol.
Briefly, 29.73 mg of the Herbal composition 2 contents was weighed, dissolved in 500 μl of DMSO and the volume was made up to 25 ml with phosphate buffered saline. […] The sample was filtered and the filtrate was used for the assay. For calculation purposes the sample was considered to be 100% soluble.
Trolox (reference inhibitor) preparation, For trolox, a stock of […] was prepared by dissolving 2 mg of trolox in 2 ml of phosphate buffered saline. […] Further dilutions were made as required with phosphate buffered saline.
Briefly, 8 mg of the Herbal composition 2 contents was weighed, dissolved in 200 μl of DMSO and the volume was made up to 2 ml with 0.1M phosphate buffer pH 7.4. Further dilutions were done in 0.1M phosphate buffer pH 7.4 containing 10% of DMSO. […] For calculation purposes the sample was considered to be 100% soluble.
as §1, with “samples.” for “samples. The % inhibition values were calculated as follows: [formula] IC50 was calculated using log-probit analysis.”

rat pancreatic islets = test: Insulin secretion in rat pancreatic islets (ELISA); assay type: cell-based; details: 3 μM
Text: The objective of the experiment is to evaluate the effect of herbal supplement test composition on insulin secretion in rat pancreatic islets. Insulin, a peptide hormone, is secreted by pancreatic β-cells and is a key regulator in glucose homeostasis. Insulin deficiency leads to insulin-dependent (type 1) diabetes, whereas resistance to insulin action is common in non-insulin-dependent diabetes (type 2), obesity, and endocrine dysfunctions. The pancreatic β-cells are known to be sensitive to the glucose concentration in the blood. When the blood glucose levels are high they secrete insulin into the blood; when the levels are low they cease their secretion of this hormone into the general circulation. Insulin released by the β-cells is the main regulator of glucose levels.
Firstly, the herbal supplement composition is dissolved in DMSO with sonication for 15 min and centrifuged at 10,000 rpm for 10 minutes at room temperature to remove insoluble debris. Glyburide (CAS: 10238-21-8) and Glucose are used as reference compounds in the present experiment. Glyburide (CAS: 10238-21-8) is dissolved in DMSO and used at 3 μM. […]
At the end of the 1 hr incubation period, 20 μl of supernatant is gently transferred to another plate. Insulin secretion is measured using the Mercodia Rat Insulin ELISA kit according to the manufacturer's protocol. […]

Caco-2 cells = test: NBD-cholesterol uptake in Caco-2 cells; assay type: cell-based, human; details: positive control, 1.25, 2.5, 5 and 10 μM, 48 hrs
Protocol: The objective of the experiment is to evaluate the effect of the supplement composition on cholesterol uptake in Caco-2 (human epithelial colorectal adenocarcinoma) cells. Cholesterol is both an important structural component of cell membranes and an early intermediate in hormone and bile acid biosynthesis. The supplement composition is dissolved in Dimethyl Sulphoxide (DMSO) with sonication for 15 min and centrifuged at 10,000 rpm for 10 min at room temperature to remove insoluble debris. The reference compound used in the present experiment is U-18666A (CAS: 3039-71-2), which increases cholesterol uptake by inhibiting trafficking of synthesized cholesterol. The U-18666A is dissolved in DMSO and used at a concentration of about 1.25, 2.5, 5 and 10 μM. Moreover, U-18666A is used as a positive control. The reagent used is 3-hexanoyl-NBD Cholesterol. Caco-2 cells are maintained at 60-70% confluence in complete growth medium EMEM containing 20% FBS and required antibiotic. For the assay, cells are harvested using 0.25% trypsin EDTA. The trypsinized cells are centrifuged at 1200 rpm for 5 minutes and re-suspended in growth medium. […] At the end of the incubation period, the plates are washed twice with PBS and cholesterol uptake is calculated by measuring NBD cholesterol fluorescence (Ex 485 nm, Em 535 nm). […]

[4] = DPPH radical scavenging activity, cell-free assay (Experiment 7); assay type: biochemical; details: 200 μM DPPH, 30 min
Protocol: The objective of this experiment is to evaluate the effect of the supplement concentration on DPPH radical scavenging activity in a cell-free assay. The supplement concentration is dissolved in DMSO with sonication for 15 min and centrifuged at 10,000 rpm for 10 min at room temperature to remove insoluble debris. 2,2-Diphenyl-1-picrylhydrazyl (DPPH) is used as a reagent for this experiment. DPPH is an antioxidant reagent that is used as a free radical trap or scavenger. The color of DPPH changes from red to yellow as its scavenging activity increases. This is measured by absorbance at 517 nm. The reference compound used is Trolox (CAS: 53188-07-1). The Trolox is dissolved in DMSO and used at different concentrations. Trolox is used as positive control.
A reaction mix is made in 200 μL methanol containing 200 μM of DPPH and various concentrations of the supplement. The mixture is mixed gently with a pipette and left to stand for 30 min in the dark, after which absorbance readings are taken at 517 nm. The change in DPPH absorbance is calculated relative to the absorbance of DPPH alone i.e. without the supplement. The DMSO concentration in the assay is maintained at less than equal to 1.0%. The data is fit to a non-linear regression using Graph pad Prism (version 5.0). […]

LDL oxidation = LDL oxidation inhibition assay, human serum, copper sulphate (Experiment 3); assay type: biochemical
Protocol: The sample was filtered and the filtrate was used for the assay. […] Trolox (reference inhibitor) preparation, For trolox, a stock of […] was prepared by dissolving 2 mg of trolox in 2 ml of phosphate buffered saline. […] Further dilutions were made as required with phosphate buffered saline. The assay was carried out as per the method of Hodgson et al with modifications. In brief, the reaction mixture contained phosphate buffered saline/vehicle buffer/positive control/test sample of various concentrations and serum from fasting human. Copper sulphate solution was added to the reaction mixture to start the reaction. The reaction mix was mixed and read immediately at 234 nm using a UV-VIS spectrophotometer, for the initial reading, and incubated. After the completion of incubation period, the final absorbance was measured at 234 nm. A control reaction was carried out without test samples. The % inhibition values were calculated as follows: [formula] Where, Absorbance=Final Absorbance−Initial absorbance. IC50 was calculated using log-probit analysis.

[5] = system: Low Density Lipoproteins, Human Plasma; test: LDL oxidation in a cell-free system, Cu2+ induced (Experiment 10); assay type: biochemical; details: reference compounds, FIG. 6B

O=C(O)c1cc(O)c(O)c(O)c1 [Gallic Acid, Gallic acid]
% Inhibition (Mean ± SEM), DPPH ([1]; 0.5 μg/ml): 8.71 ± 1.12% | % Inhibition (Mean ± SEM), DPPH ([1]; 1.5 μg/ml): 32.14 ± 2.42% | % Inhibition (Mean ± SEM), DPPH ([1]; 2.5 μg/ml): 60.58 ± 2.84% | % Inhibition (Mean ± SEM), DPPH ([1]; 5 μg/ml): 80.52 ± 0.57% | IC50 (95% Confidence Interval), DPPH radical scavenging ([1]; log-probit analysis): 2.09 µg/mL (≈ 12.3 µM) | % Inhibition (Mean ± SEM), super oxide radical ([2]; 5 μg/ml): 27.00 ± 3.37% | % Inhibition (Mean ± SEM), super oxide radical ([2]; 10 μg/ml): 32.89 ± 3.26% | % Inhibition (Mean ± SEM), super oxide radical ([2]; 20 μg/ml): 47.80 ± 4.26% | % Inhibition (Mean ± SEM), super oxide radical ([2]; 40 μg/ml): 69.50 ± 1.00% | % Inhibition (Mean ± SEM), super oxide radical ([2]; 80 μg/ml): 83.67 ± 0.00% | IC50 (95% Confidence Interval), super oxide radical scavenging ([2]; log-probit analysis): 17.86 µg/mL (≈ 105 µM) | Solubility upon visual inspection [3]: approximately 100% | Solubility upon visual inspection ([3]; pH 7.4): approximately 100%

COc1ccc(Cl)cc1C(=O)NCCc1ccc(S(=O)(=O)NC(=O)NC2CCCCC2)cc1 [Glyburide]
Insulin secretion, effect in words (rat pancreatic islets): significant increase

CCN(CC)CCO[C@H]1CC[C@@]2(C)C(=CC[C@@H]3[C@@H]2CC[C@]2(C)C(=O)CC[C@@H]32)C1 [U-18666A]
Increase in NBD-cholesterol uptake (Caco-2 cells): up to 25%

Cc1c(C)c2c(c(C)c1O)CCC(C)(C(=O)O)O2 (centres unmarked) [Trolox]
EC50, DPPH scavenging activity [4]: 28 µg/mL (≈ 112 µM) | % Inhibition (Mean ± SEM), LDL oxidation (LDL oxidation; 0.25 μM): 48.80 ± 6.21% | % Inhibition (Mean ± SEM), LDL oxidation (LDL oxidation; 0.5 μM): 73.07 ± 3.39% | % Inhibition (Mean ± SEM), LDL oxidation (LDL oxidation; 1.0 μM): 76.33 ± 0.07% | % Inhibition (Mean ± SEM), LDL oxidation (LDL oxidation; 2.0 μM): 79.04 ± 0.64% | IC50 (LDL oxidation; log-probit analysis, read-out: IC50 (95% Confidence Interval), LDL oxidation inhibition): 0.18 µM | Solubility upon visual inspection [3]: approximately 100%

O=C1O[C@H]([C@@H](O)CO)C(O)=C1O [ascorbic acid]
Inhibition of LDL oxidation, in words [5]: significant inhibition

Reference: patent US20210220419A1, “Herbal Nutraceutical Formulation to Reduce Oxidative Stress, Viral and Microbial Infections, and Inflammation” (priority 2017, published 2021)
